Source: patent publication US8871681B2, “Herbicidal compositions comprising 4-amino-3-chloro-5-fluoro-6-(4-chloro-2-fluoro-3-methoxyphenyl) pyridine-2-carboxylic acid or a derivative thereof and certain sulfonylureas” (Dow AgroSciences LLC, priority 2012, dated 2014)

Assays:
[1] = tested on: LEFCH (Leptochloa chinensis, Chinese sprangletop); assay: Postemergence foliar-applied weed control, direct seeded rice, greenhouse (Example I); assay type: in vivo, Leptochloa chinensis (L.) Nees; details: Dinebra chinensis, post-emergence
Excerpt: (§1) Seeds or nutlets of the desired test plant species were planted in a soil matrix prepared by mixing a loam or sandy loam soil (e.g., 28.6 percent silt, 18.8 percent clay, and 52.6 percent sand, with a pH of about 5.8 and an organic matter content of about 1.8 percent) and calcareous grit in an 80 to 20 ratio. The soil matrix was contained in plastic pots with a volume of 1 quart and a surface area of 83.6 square centimeters (cm^2). When required to ensure good germination and healthy plants, a fungicide treatment and/or other chemical or physical treatment was applied. The plants were grown for 8-22 days in a greenhouse with an approximate 14 h photoperiod which was maintained at about 29° C. during the day and 26° C. during the night. Nutrients (Peters Excel® 15-5-15 5-Ca 2-Mg and iron chelate) were applied in the irrigation solution as needed and water was added on a regular basis. Supplemental lighting was provided with overhead metal halide 1000-Watt lamps as necessary. The plants were employed for testing when they reached the first through fourth true leaf stage.
(§2) Treatments consisted of the acid or esters of 4-amino-3-chloro-5-fluoro-6-(4-chloro-2-fluoro-3-methoxy-phenyl)pyridine-2-carboxylic acid (Compound A), each formulated as an SC, and various herbicidal components alone and in combination. Forms of compound A were applied on an acid equivalent basis.
(§3) Other herbicidal components were applied on an active ingredient basis and included acetolactate synthase (ALS)-inhibiting herbicides (sulfonylurea chemical class) azimsulfuron formulated as Gulliver®, bensulfuron-methyl formulated as Londax® 60DF, cyclosulfamuron (technical material), ethoxysulfuron formulated as Sunrice® 15 WDG, flazasulfuron formulated as Katana®, flucetosulfuron formulated as Sukedachi® 1KG G, foramsulfuron formulated as Option®, imazosulfuron formulated as Brazzos® WG, iodosulfuron-methyl-sodium formulated as Hussar®, metsulfuron-methyl formulated as Lorate®, nicosulfuron formulated as Accent®, orthosulfamuron formulated as Strada® WG, primisulfuron-methyl (technical material), propyrisulfuron formulated as Zeta One®, rimsulfuron formulated as Matrix® WG, sulfometuron-methyl formulated as Oust®, and trifloxysulfuron-sodium formulated as Monument® 75WG.
(§4) Treatment requirements were calculated based upon the rates being tested, the concentration of active ingredient or acid equivalent in the formulation, and a 12 mL application volume at a rate of 187 L/ha.
(§5) For treatments comprised of formulated compounds, measured amounts of compounds were placed individually in 25 mL glass vials and diluted in a volume of 1.25% (v/v) Agri-Dex® crop oil concentrated to obtain 12× stock solutions. […] Application solutions were prepared by adding an appropriate amount of each stock solution (e.g., 1 mL) and diluted to the appropriate final concentrations with the addition of 10 mL of an aqueous mixture of 1.25% (v/v) crop oil concentrate so that the final spray solutions contained 1.25+/−0.05% (v/v) Agrcrop oil concentrate.
(§6) For treatments comprised of formulated and technical compounds, weighed amounts of the technical materials were placed individually in 25 mL glass vials and dissolved in a volume of 97:3 v/v acetone/DMSO to obtain 12× stock solutions, and measured amounts of the formulated compounds were placed individually in 25 mL glass vials and diluted in a volume of 1.25% (v/v) crop oil concentrate to obtain 12× stock solutions. […] Application solutions were prepared by adding an appropriate amount of each stock solution (e.g., 1 mL) and diluted to the appropriate final concentrations with the addition of an appropriate amount of an aqueous mixture of 1.5% (v/v) crop oil concentrate so that the final spray solutions contained 1.25% (v/v) crop oil concentrate. […]

[2] = tested on: BRAPP (Brachiaria platyphylla, broadleaf signalgrass); assay: as above; assay type: in vivo, Brachiaria platyphylla (Griseb.) Nash; details: Urochloa platyphylla, post-emergence, 480 h, 20 DAA, read-out: Visual Weed Control (%) Obs
Excerpt: as §1, §2, §3, §4, §5, §6

[3] = tested on: ECHOR (Echinochloa oryzoides, early watergrass); assay: In-water applied weed control, transplanted paddy rice, greenhouse (Example II); assay type: in vivo, Echinochloa oryzoides (Ard.) Fritsch
Method: (§7) Weed seeds or nutlets of the desired test plant species were planted in puddled soil (mud) prepared by mixing a shredded, non-sterilized mineral soil (50.5 percent silt, 25.5 percent clay, and 24 percent sand, with a pH of about 7.6 and an organic matter content of about 2.9 percent) and water at a 1:1 volumetric ratio. The prepared mud was dispensed in 365 mL aliquots into 16-ounce (oz.) non-perforated plastic pots with a surface area of 86.59 square centimeters (cm^2) leaving a headspace of 3 centimeters (cm) in each pot. Rice seeds were planted in Sun Gro MetroMix® 306 planting mixture, which typically has a pH of 6.0 to 6.8 and an organic matter content of about 30 percent, in plastic plug trays. Seedlings at the second or third leaf stage of growth were transplanted into 860 mL of mud contained in 32-oz. non-perforated plastic pots with a surface area of 86.59 cm^2 4 days prior to herbicide application. The paddy was created by filling the headspace of the pots with 2.5 to 3 cm of water. When required to ensure good germination and healthy plants, a fungicide treatment and/or other chemical or physical treatment was applied. The plants were grown for 4-22 days in a greenhouse with an approximate 14 h photoperiod which was maintained at about 29′C during the day and 26° C. during the night. Nutrients were added as Osmocote® (19:6:12, N:P:K+minor nutrients) at 2 g per 16-oz. pot and 4 g per 32-oz. pot. Water was added on a regular basis to maintain the paddy flood, and supplemental lighting was provided with overhead metal halide 1000-Watt lamps as necessary. The plants were employed for testing when they reached the first through fourth true leaf stage.
(§8) Treatments consisted of the acid or esters of 4-amino-3-chloro-5-fluoro-6-(4-chloro-2-fluoro-3-methoxy-phenyl)pyridine-2-carboxylic acid (compound A) each formulated as an SC and various herbicidal components alone and in combination. Forms of compound A were applied on an acid equivalent basis.
(§9) Other herbicidal components were applied on an active ingredient basis and included acetolactate synthase (ALS)-inhibiting herbicides (sulfonylurea chemical class), azimsulfuron formulated as Gulliver®, bensulfuron-methyl formulated as Londax® 60DF, cyclosulfamuron (technical grade materail), ethoxysulfuron formulated as Sunrice® 15 WDG, flucetosulfuron formulated as Sukedachi® 1KG G, imazosulfuron formulated as Brazzos®, metsulfuron-methyl formulated as Lorate®, nicosulfuron formulated as Accent®, orthosulfamuron formulated as Strada® WG, propyrisulfuron formulated as Zeta One®, and rimsulfuron formulated as Matrix® WG.
(§10) Treatment requirements for each compound or herbicidal component were calculated based upon the rates being tested, the concentration of active ingredient or acid equivalent in the formulation, an application volume of 2 mL per component per pot, and an application area of 86.59 cm^2 per pot.
(§11) For formulated compounds, a measured amount was placed in an individual 100 or 200 mL glass vial and was dissolved in a volume of 1.25% (v/v) Agri-Dex® crop oil concentrate to obtain application solutions.
(§12) For technical grade compounds, a weighed amount was placed in an individual 100 to 200 mL glass vial and was dissolved in a volume of acetone to obtain concentrated stock solutions. […] The concentrated stock solutions obtained were diluted with an equivalent volume of an aqueous mixture containing 2.5% (v/v) crop oil concentrate so that the final application solutions contained 1.25% (v/v) crop oil concentrate.
(§13) Applications were made by injecting with a pipetter appropriate amounts of the application solutions, individually and sequentially, into the aqueous layer of the paddy. Control plants were treated in the same manner with the solvent blank. Applications were made so that all treated plant material received the same concentrations of acetone and crop oil concentrate. […]

[4] = tested on: SCPMA (Bolboschoenus maritimus or Schoenoplectus maritimus, sea clubrush); assay: as above; assay type: in vivo, Bolboschoenus maritimus (L.) Palla
Method: as §7, §8, §9, §10, §11, §12, §13

[5] = tested on: DIGSA (Digitaria sanguinalis, large crabgrass); assay: Postemergence foliar-applied weed control, direct seeded rice, greenhouse (Example I); assay type: in vivo, Digitaria sanguinalis (L.) Scop.
Excerpt: as §1, §2, §3, §4, §5, §6

[6] = tested on: CYPIR (Cyperus iria, rice flatsedge); assay: as above; assay type: in vivo, Cyperus iria L.; details: 22 DAA; 12.5 gai/ha
Excerpt: as §1, §2, §3, §4, §5, §6

[7] = Table 28, second set, 25 gai/ha alone

**Q.** Which pest or weed control at 15 g/ha ([1]; 504 h, read-out: Visual Weed Control (%) Obs, 21 DAA, 15 gai/ha) does the source give for `COC(=O)c1ccccc1S(=O)(=O)NC(=O)Nc1nc(OC(F)F)cc(OC(F)F)n1` [Primisulfuron-methyl, methyl 2-[[[[[4,6-bis(difluoromethoxy)-2-pyrimidinyl]amino]carbonyl]amino]sulfonyl]benzoate] here?
**A.** 40%

**Q.** And the pest or weed control at 30 g/ha ([1]; 504 h, read-out: Visual Weed Control (%) Obs, 21 DAA, 30 gai/ha)?
**A.** 60%

**Q.** With `COc1cc(OC)nc(NC(=O)NS(=O)(=O)c2c(-c3nnn(C)n3)cnn2C)n1` [Azimsulfuron, N-[[(4,6-dimethoxy-2-pyrimidinyl)amino]carbonyl]-1-methyl-4-(2-methyl-2H-tetrazol-5-yl)-1H-pyrazole-5-sulfonamide, reference compound] as the compound, how does the pest or weed control at 3.125 g/ha ([2]; 3.125 gai/ha) read?
**A.** 0%

**Q.** And the pest or weed control at 6.25 g/ha ([2]; 6.25 gai/ha)?
**A.** 0%

**Q.** What about the pest or weed control at 12.5 g/ha ([2]; 12.5 gai/ha) of the same compound?
**A.** 60%

**Q.** What about the pest or weed control at 3.125 g/ha ([1]; 480 h, 20 DAA, 3.125 gai/ha, read-out: Visual Weed Control (%) Obs) of the same compound?
**A.** 0%

**Q.** What about the pest or weed control at 6.25 g/ha ([1]; 480 h, 20 DAA, 6.25 gai/ha, read-out: Visual Weed Control (%) Obs) of the same compound?
**A.** 0%

**Q.** What about the “Visual Weed Control (%) - 20 DAA ECHOR Obs” value ([3]; Table 28, 2.5 gai/ha alone) of the same compound?
**A.** 0%

**Q.** What about the “Visual Weed Control (%) - 20 DAA ECHOR Obs” value [3, 7] of the same compound?
**A.** 60%

**Q.** And the “Visual Weed Control (%) - 20 DAA ECHOR Obs” value ([3]; Table 29, 2.5 gai/ha alone)?
**A.** 0%

**Q.** What about the “Visual Weed Control (%) - 20 DAA ECHOR Obs” value ([3]; Table 29, 5 gai/ha alone) of the same compound?
**A.** 20%

**Q.** And the “Visual Weed Control (%) - 20 DAA ECHOR Obs” value ([3]; Table 29, 25 gai/ha alone)?
**A.** 60%

**Q.** What about the “Visual Weed Control (%) - 20 DAA ECHOR Obs” value ([3]; Table 30, 25 gai/ha alone) of the same compound?
**A.** 60%

**Q.** And the “Visual Weed Control (%) - 20 DAA SCPMA Obs” value ([4]; Table 28, 2.5 gai/ha alone)?
**A.** 70%

**Q.** And the “Visual Weed Control (%) - 20 DAA SCPMA Obs” value [4, 7]?
**A.** 85%

**Q.** And the “Visual Weed Control (%) - 20 DAA SCPMA Obs” value ([4]; Table 29, 2.5 gai/ha alone)?
**A.** 70%

**Q.** And the “Visual Weed Control (%) - 20 DAA SCPMA Obs” value ([4]; Table 29, 25 gai/ha alone)?
**A.** 85%

**Q.** With `COC(=O)c1ccccc1S(=O)(=O)NC(=O)Nc1nc(C)cc(C)n1` [Sulfometuron-methyl, methyl 2-[[[[(4,6-dimethyl-2-pyrimidinyl)amino]carbonyl]amino]sulfonyl]benzoate, reference compound] as the compound, how does the “Visual Weed Control (%) Obs” value ([5]; 22 DAA, 35 gai/ha) read?
**A.** 85%

**Q.** For `COc1cc(OC)nc(NC(=O)NS(=O)(=O)c2cc(NC=O)ccc2C(=O)N(C)C)n1` [Foramsulfuron, 2-[[[[(4,6-dimethoxy-2-pyrimidinyl)amino]carbonyl]amino]sulfonyl]-4-(formylamino)-N,N-dimethylbenzamide], which pest or weed control at 20 g/ha ([1]; 504 h, 21 DAA, 20 gai/ha, read-out: Visual Weed Control (%) Obs) is on record?
**A.** 0%

**Q.** And the pest or weed control at 40 g/ha ([1]; 504 h, 21 DAA, 40 gai/ha, read-out: Visual Weed Control (%) Obs)?
**A.** 25%

**Q.** Which “Visual Weed Control (%) - 21 DAA DIGSA Obs” value ([5]; Table 27, foliar-applied, 24 gai/ha alone) does the source give for `COc1cc(OC)nc(NC(=O)[N-]S(=O)(=O)c2ncccc2OCC(F)(F)F)n1.[Na+]` [Trifloxysulfuron-sodium] here?
**A.** 65%

**Q.** Which “Visual Weed Control (%) Obs” value [6] does the source give for `COc1cc(OC)nc(NC(=O)NS(=O)(=O)Nc2ccccc2C(=O)C2CC2)n1` [Cyclosulfamuron, N-[[[2-(cyclopropylcarbonyl)phenyl]amino]sulfonyl]-N′-(4,6-dimethoxy-2-pyrimidinyl)urea, reference compound] here?
**A.** 95%

**Q.** And the “Visual Weed Control (%) - 21 DAA SCPMA Obs” value ([4]; Table 33, 12.5 gai/ha alone)?
**A.** 75%
